We go through 5 compounds from ChEMBL document CHEMBL2203051, “Synthesis of new opioid derivatives with a propellane skeleton and their pharmacologies: part 3, novel propellane derivatives with pentacyclic skeletons” (Bioorg Med Chem Lett, 2012).

The species named for test [1] is Mus musculus. Nature of the test: Selectivity ratio of Ki for delta opioid receptor mouse whole brain without cerebellum to Ki for kappa opioid receptor in mouse whole brain without cerebellum.
The nature of test [2]: Selectivity ratio of Ki for mu opioid receptor in […] to Ki for kappa opioid receptor in mouse whole brain without cerebellum.
Test [3] has as its target Mu-type opioid receptor (Cavia porcellus, UniProt P97266). Kind of test: Displacement of [3H]DAMGO from mu opioid receptor in […]. In general terms: Displacement assays read how much labelled ligand stays bound in the presence of the test substance.
In test [4] the target is Kappa-type opioid receptor (Mus musculus, UniProt P33534). Nature of the test: Displacement of [3H]U-69,593 from kappa opioid receptor in mouse whole brain without cerebellum.
Test [5] addresses Delta-type opioid receptor (Mus musculus, UniProt P32300). Nature of the test: Displacement of [3H][…] from delta opioid receptor in mouse whole brain without cerebellum.

pKi: −log10 of the molar value.

Chain of Mu-type opioid receptor (P97266 whole entry): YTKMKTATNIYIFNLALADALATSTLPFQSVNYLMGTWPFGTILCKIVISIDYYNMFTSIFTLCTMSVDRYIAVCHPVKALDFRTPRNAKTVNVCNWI
Chain of Kappa-type opioid receptor (P33534 whole entry): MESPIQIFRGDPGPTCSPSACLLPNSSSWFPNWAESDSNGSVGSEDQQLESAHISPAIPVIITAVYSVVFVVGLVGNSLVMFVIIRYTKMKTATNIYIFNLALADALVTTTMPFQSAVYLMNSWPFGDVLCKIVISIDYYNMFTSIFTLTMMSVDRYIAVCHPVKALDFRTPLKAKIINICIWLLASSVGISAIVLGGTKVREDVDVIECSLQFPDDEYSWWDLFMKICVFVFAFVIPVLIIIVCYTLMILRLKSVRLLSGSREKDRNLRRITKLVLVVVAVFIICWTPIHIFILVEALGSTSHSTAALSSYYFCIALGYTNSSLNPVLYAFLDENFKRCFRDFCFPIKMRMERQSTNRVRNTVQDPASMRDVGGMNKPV
Chain of Delta-type opioid receptor (P32300 whole entry): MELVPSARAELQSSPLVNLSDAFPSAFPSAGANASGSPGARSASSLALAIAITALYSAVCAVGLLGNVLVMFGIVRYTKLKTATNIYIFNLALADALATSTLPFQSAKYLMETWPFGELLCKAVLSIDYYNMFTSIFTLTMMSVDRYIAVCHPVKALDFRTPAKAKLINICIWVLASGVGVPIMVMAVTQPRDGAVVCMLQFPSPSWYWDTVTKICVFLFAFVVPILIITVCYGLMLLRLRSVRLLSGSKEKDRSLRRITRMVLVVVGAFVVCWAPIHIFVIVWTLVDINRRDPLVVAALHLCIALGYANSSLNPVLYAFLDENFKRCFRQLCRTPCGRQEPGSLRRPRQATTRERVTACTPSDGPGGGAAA

The term pKi denotes −log10 of the Ki, conventionally taken in molar units. In the case of `O=C1CC23CCN(CC4CC4)C4C[C@@H](O)C1CC42Cc1ccc(O)cc13` (stereo not given in full), the results for the Ratio Ki in test [1] and in test [2] were 8.9 and 1.72, respectively. In addition, the pKi in test [3] is 7.88; in test [4], 8.12; in test [5], 7.17.
On the same counts, the results for `O=C1CC23CCN(CC4CC4)C4C=CC1CC42Cc1ccc(O)cc13` (stereo not given) are 27.2, 9.17, 7.75, 8.72 and 7.28.
The corresponding values for `O=C1CC23CCN(CC4CC4)C4C[C@H](O)C1CC42Cc1ccc(O)cc13` (stereo not given in full) are 8.72, 4.22, 7.15, 7.78 and 6.84.
For the compound `O=C1CC23CCN(CC4CC4)C4CCC1CC42Cc1ccc(O)cc13` (stereo not given), the figures for the Ratio Ki in test [1] and in test [2] were 52 and 3.82, respectively. In addition, the pKi in test [3] is 8.49; in test [4] it was 9.08; in test [5], 7.36.
The corresponding values for `O=C1CC2N(CC3CC3)CCC34CC(=O)C1CC23Cc1ccc(O)cc14` (stereo not given) are 7.26, 3.31, 6.73, 7.25 and 6.39.
